From patent US20180200257A1, “METHODS FOR THE TREATMENT OF INFLAMMATORY DISORDERS” (Galapagos NV, priority 2015, published 2018)

Tested on: subjects with moderately to severely active RA who have an inadequate response to methotrexate (MTX)
Experiment: Study 1 (add-on to MTX) - DAS28(CRP) scores
Format: in vivo, human
Parameters: key to DAS28(CRP) mean CFB (LOCF): change from baseline in DAS28(CRP) score (joints, CRP, 0-100 VAS)
Protocol: Double-blind, placebo-controlled add on study in subjects with moderately to severely active RA who have an inadequate response to methotrexate (MTX) (oral or parenteral).
595 subjects randomized to one of 6 dose regimens of Compound 1 (dosed as [Compound 1:HCl:3H2O]) (3 dose levels administered either once or twice daily) or placebo on top of each subject's stable dose of MTX.
Compound 1 (dosed as [Compound 1:HCl:3H2O]) is dosed for twelve weeks once daily (q.d.) (50 mg, 100 mg or 200 mg) or twice daily (b.i.d.) (25 mg, 50 mg or 100 mg); or placebo.
At Week 12, the subjects on placebo who have not achieved 20% improvement in swollen joint count (SJC66) and tender joint count (TJC68) are re-randomized automatically to receive Compound 1 (dosed as a [Compound 1:HCl:3H2O]) either at 100 mg q.d. or 50 mg b.i.d. doses in a blinded fashion; subjects on 50 mg q.d. who have not achieved 20% improvement in SJC66 and TJC68 will be assigned to 100 mg q.d. and subjects on 25 mg b.i.d. that have not achieved a 20% improvement in SJC66 and TJC68 will be assigned to 50 mg b.i.d. Subjects who switch treatment at week 12 are handled as if they discontinued at week 12 for the purpose of statistical analysis, whereas subjects in the other groups will maintain their randomized treatment until Week 24.
The (DAS28(CRP)) is a system developed and validated by the European League Against Rheumatism (EULAR) to measure the progress and improvement of rheumatoid arthritis and has been extensively validated (Wells et al., 2008). The DAS28(CRP) scoring includes a 28 tender and swollen joint count, CRP measurement from blood analysis, and a general health assessment on a visual analog scale (Fransen et al., 2003).
DAS28(CRP) values range from 2.0 to 10.0, and more particularly reflect the following status: • Remission: DAS28(CRP) ≤2.6 • Low Disease activity: 2.6 <DAS28(CRP) ≤3.2 • Moderate Disease Activity: 3.2 <DAS28(CRP) ≤5.1 • High Disease Activity: DAS28(CRP) >5.1
In practice, the DAS28(CRP) measurement involves the evaluation 28 different joints including in the measurement (proximal interphalangeal joints (10 joints), metacarpophalangeal joints (10), wrists (2), elbows (2), shoulders (2), and knees (2)). When looking at these joints, both the number of joints with tenderness upon touching and swelling are counted.
Secondly, C-reactive protein level is measured.
Finally, the patient makes a subjective assessment of disease activity during the preceding 7 days on a scale between 0 and 100, where 0 is “no activity” and 100 is “highest activity possible”.
The DAS28(CRP) score is then calculated as follows:
Firstly, the patient is asked to make a vertical mark on a 100 mm Visual Analog Scale (VAS) corresponding to their general health or global disease activity on a touch screen to measure the VAS value, which is used in the formula below.
Secondly, a swollen and tender joint examination is then performed on the patient. The swollen and tender joints are recorded. From this examination are obtained the total amount of swollen joints (SJC) and the total amount of tender joints (TJC), which are used in the formula below.
Thirdly, C-reactive protein (CRP) levels are measured.
Finally, the values obtained above (VAS, TJC28, SJC28, and CRP) are computed into the following Formula to obtain the DAS28(CRP) score.
DAS28(CRP)=0.56*√{square root over (TJC28)}+0.28√{square root over (SJC28)}+[…] ln(CRP+1)+0.014*VAS
The improvement (decreases) in the DAS28(CRP) scores for each patient group at weeks 1, 2, 4, 8 and 12 is shown in Table LXXXVII and Table LXXXVIII below, together with the Hommel-corrected p-value for the pairwise comparisons of each group with placebo.
The number of subjects (N) provided in each groups corresponds to the number of subjects starting the study in each group, and the DAS28 (CRP) data reported below corresponds to the responding subjects continuing for the entire 24 weeks on their initial treatment course.

[1] = 2 × 25 mg b.i.d., 12 weeks results
[2] = 2 × 25 mg b.i.d., 24 weeks results
[3] = 2 × 50 mg b.i.d., 12 weeks results
[4] = 2 × 50 mg b.i.d., 24 weeks results
[5] = 2 × 100 mg b.i.d., 12 weeks results
[6] = 2 × 100 mg b.i.d., 24 weeks results

SMILES: O=C(Nc1nc2cccc(-c3ccc(CN4CCS(=O)(=O)CC4)cc3)n2n1)C1CC1 [Compound 1, cyclopropanecarboxylic acid {5-[4-(1,1-dioxo-thiomorpholin-4-ylmethyl)-phenyl]-[1,2,4]triazolo[1,5-a]pyridin-2-yl}-amide]
- DAS28(CRP) mean CFB (LOCF) (2 × 25 mg b.i.d., week 2, 12 weeks results): −1.06
- DAS28(CRP) mean CFB (LOCF) (2 × 25 mg b.i.d., week 2, 24 weeks results): −1.06
- DAS28(CRP) mean CFB (LOCF) (2 × 25 mg b.i.d., week 4, 12 weeks results): −1.45
- DAS28(CRP) mean CFB (LOCF) (2 × 25 mg b.i.d., week 4, 24 weeks results): −1.45
- DAS28(CRP) mean CFB (LOCF) (2 × 25 mg b.i.d., week 8, 12 weeks results): −1.82
- DAS28(CRP) mean CFB (LOCF) (2 × 25 mg b.i.d., week 8, 24 weeks results): −1.82
- DAS28(CRP) mean CFB (LOCF) (2 × 25 mg b.i.d., week 12, 12 weeks results): −1.88
- DAS28(CRP) mean CFB (LOCF) (2 × 25 mg b.i.d., week 12, 24 weeks results): −1.88
- DAS28(CRP) mean CFB (LOCF) (2 × 25 mg b.i.d., week 16, 24 weeks results): −2.02
- DAS28(CRP) mean CFB (LOCF) (2 × 25 mg b.i.d., week 20, 24 weeks results): −2.07
- DAS28(CRP) mean CFB (LOCF) (2 × 25 mg b.i.d., week 24, 24 weeks results): −2.19
- % patients reaching low disease activity and/or remission at week 12 (LOCF) [1]: 28%
- % patients reaching low disease activity at week 12 (LOCF) [1]: 13%
- % patients reaching remission at week 12 (LOCF) [1]: 15%
- % patients reaching low disease activity and/or remission at week 24 (LOCF) [2]: 40%
- % patients reaching low disease activity at week 24 (LOCF) [2]: 16%
- % patients reaching remission at week 24 (LOCF) [2]: 23%
- DAS28(CRP) mean CFB (LOCF) (2 × 25 mg b.i.d., Week 1, 12 weeks results): −0.68
- DAS28(CRP) mean CFB (LOCF) (2 × 25 mg b.i.d., Week 1, 24 weeks results): −0.68
- DAS28(CRP) mean CFB (LOCF) (2 × 50 mg b.i.d., week 2, 12 weeks results): −1.22
- DAS28(CRP) mean CFB (LOCF) (2 × 50 mg b.i.d., week 2, 24 weeks results): −1.22
- DAS28(CRP) mean CFB (LOCF) (2 × 50 mg b.i.d., week 4, 12 weeks results): −1.65
- DAS28(CRP) mean CFB (LOCF) (2 × 50 mg b.i.d., week 4, 24 weeks results): −1.63
- DAS28(CRP) mean CFB (LOCF) (2 × 50 mg b.i.d., week 8, 12 weeks results): −1.93
- DAS28(CRP) mean CFB (LOCF) (2 × 50 mg b.i.d., week 8, 24 weeks results): −1.93
- DAS28(CRP) mean CFB (LOCF) (2 × 50 mg b.i.d., week 12, 12 weeks results): −2.10
- DAS28(CRP) mean CFB (LOCF) (2 × 50 mg b.i.d., week 12, 24 weeks results): −2.10
- DAS28(CRP) mean CFB (LOCF) (2 × 50 mg b.i.d., week 16, 24 weeks results): −2.37
- DAS28(CRP) mean CFB (LOCF) (2 × 50 mg b.i.d., week 20, 24 weeks results): −2.40
- DAS28(CRP) mean CFB (LOCF) (2 × 50 mg b.i.d., week 24, 24 weeks results): −2.40
- % patients reaching low disease activity and/or remission at week 12 (LOCF) [3]: 29%
- % patients reaching low disease activity at week 12 (LOCF) [3]: 11%
- % patients reaching remission at week 12 (LOCF) [3]: 18%
- % patients reaching low disease activity and/or remission at week 24 (LOCF) [4]: 38%
- % patients reaching low disease activity at week 24 (LOCF) [4]: 14%
- % patients reaching remission at week 24 (LOCF) [4]: 24%
- DAS28(CRP) mean CFB (LOCF) (2 × 50 mg b.i.d., Week 1, 12 weeks results): −0.84
- DAS28(CRP) mean CFB (LOCF) (2 × 50 mg b.i.d., Week 1, 24 weeks results): −0.84
- DAS28(CRP) mean CFB (LOCF) (2 × 100 mg b.i.d., week 2, 12 weeks results): −1.84
- DAS28(CRP) mean CFB (LOCF) (2 × 100 mg b.i.d., week 2, 24 weeks results): −1.84
- DAS28(CRP) mean CFB (LOCF) (2 × 100 mg b.i.d., week 4, 12 weeks results): −2.28
- DAS28(CRP) mean CFB (LOCF) (2 × 100 mg b.i.d., week 4, 24 weeks results): −2.24
- DAS28(CRP) mean CFB (LOCF) (2 × 100 mg b.i.d., week 8, 12 weeks results): −2.72
- DAS28(CRP) mean CFB (LOCF) (2 × 100 mg b.i.d., week 8, 24 weeks results): −2.72
- DAS28(CRP) mean CFB (LOCF) (2 × 100 mg b.i.d., week 12, 12 weeks results): −2.84
- DAS28(CRP) mean CFB (LOCF) (2 × 100 mg b.i.d., week 12, 24 weeks results): −2.84
- DAS28(CRP) mean CFB (LOCF) (2 × 100 mg b.i.d., week 16, 24 weeks results): −3.06
- DAS28(CRP) mean CFB (LOCF) (2 × 100 mg b.i.d., week 20, 24 weeks results): −3.02
- DAS28(CRP) mean CFB (LOCF) (2 × 100 mg b.i.d., week 24, 24 weeks results): −3.23
- % patients reaching low disease activity and/or remission at week 12 (LOCF) [5]: 50%
- % patients reaching low disease activity at week 12 (LOCF) [5]: 14%
- % patients reaching remission at week 12 (LOCF) [5]: 36%
- % patients reaching low disease activity and/or remission at week 24 (LOCF) [6]: 64%
- % patients reaching low disease activity at week 24 (LOCF) [6]: 24%
- % patients reaching remission at week 24 (LOCF) [6]: 40%
- DAS28(CRP) mean CFB (LOCF) (2 × 100 mg b.i.d., Week 1, 12 weeks results): −1.33
- DAS28(CRP) mean CFB (LOCF) (2 × 100 mg b.i.d., Week 1, 24 weeks results): −1.33
